# Where “and” joins values, the source holds several entries; their conditions need not be identical. Equal entries are not always repeated. Where two headings read alike, the source gives them in different places.
# Experiments:
# [1] = Octanol/saline solubility and partition coefficient, shake-flask technique; settings: for LogPc (octanol-saline partition coefficient) / logD: octanol/physiological saline; for LogPc (octanol-saline partition coefficient) / Water mg/ml (solubility in aqueous solution): sodium salts; for Water mg/ml (solubility in aqueous solution): physiological saline as aqueous solution; for Octanol mg/ml (solubility in octanol): sodium salts of the branched fatty acids and their PO4 derivatives
# Procedure: The lipophilicity values of various derivatives of branched fatty acids were estimated by comparing the solubility of these compounds in organic versus aqueous solutions. Octanol and physiological saline were used, respectively, as the organic and aqueous solutions. The partition coefficient (Pc) value, i.e. the octanol/saline distribution was measured by the shake-flask technique.
# [2] = system: blood brain barrier (BBB); assay: BBB permeability to EB-albumin and Fluorescein in normal rat brains; type: in vivo; settings: compounds at EC50 (Mannitol 25%); for Ratio F-Na/EB (mean of individual ratios): control 9.5 ± 1.6; for % EB/g brain: control 0.04 ± 0.01; for Brain fluorescein uptake (% of serum F-Na level): control 0.3 ± 0.08
# How it was run: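 In normal rats, Evans blue–albumin (70 kD) and fluorescein sodium (376 D) were infused into the external carotid artery over 30 s, with test compounds at their EC50 concentrations or vehicle. EB reported as percent of total per gram brain; fluorescein as percent of serum level.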
# [3] = system: blood brain barrier (BBB); assay: BBB permeabilization in rats, Evans blue extravasation into brain; type: in vivo, Sprague-Dawley rats; settings: for MEC: Table 8, sodium salt, in µM; for μg EB/g brain (at EC50): at EC50 (Mannitol at 25%); for MEC (minimal effective concentration): concentration giving 3 μg EB/g brain
# [4] = system: blood tumor barrier (BTB) of C6 glioma; assay: BTB opening in C6 glioma-bearing rats, Evans blue accumulation in tumor; type: in vivo, Sprague Dawley rats; settings: for EC50: C6 glioma-bearing rats; for BTB EB μg/g Tumor: concentrations around EC50 (Mannitol 25%), unilateral 30 s infusion; for Specificity Tumor/Non-tumor (T/NT): ratio of EB accumulated in tumor and non-tumor brain
# Procedure: In order to study the ability of DP-BFA compounds to modulate blood tumor barrier (BTB), a model system of C6 glioma-bearing rats, was employed.
# Sprague Dawley (SD) rats were inoculated with C6 gliosarcoma cells following the procedure described by Bartus et al. (Exp Neurol (1996); 142:14–28). A small burr-hole was made in the frontal scalp bone of the rat fixed in a stereotaxis apparatus. Using a Hamilton syringe, 10 μl or 5 μl of media, containing 2.5×10^5 C6 gliosarcoma cells were inoculated into the frontal cortex. Coordinates were 1 mm posterior of bregma, 2.5 mm—lateral, and 3 mm—depth. The needle remained in the place for 5 min. After removal of the needle, fascia and scalp were sutured. The rats were checked 6–8 days after inoculation, when tumors of sufficient size (20–60 mg) had developed. The tumor was weighed after F—Na visualization and dissection. Parts of the rats' brains were subject to histological examinations and monitored for Evans Blue and Fluorescein uptake into ipsilateral tumour tissue, peritumoural tissue and contralateral tissue.
# The bilateral tumor model system of C6 glioma-bearing rats described in Example 23 above was employed for screening of various derivatives of DP-BFA for their ability to permeabilize the blood brain barrier (BBB) in comparison to their effect on the blood tumor barrier (BTB). The experimental procedure described in Example 23 was followed except that the tumor-bearing rats were further treated with DP-BFA. The tested compounds, at concentrations around their EC50 values, were unilaterally infused into the external carotis artery over 30 seconds as described in Example 17. Animals treated with vehicle only serve as a control group. Permeabilization effect was quantitated by measuring accumulation of albumin bound Evans blue dye in tumor (T) versus non-tumor (NT) tissues.
# Specificity index is defined as the ratio between the levels of EB accumulated in tumor and those accumulated in non-tumor brain tissues (T/NT).
# [5] = octanol, organic solvent or mixture
# [6] = physiological saline, saline or isotonic
# [7] = Table 6, rat brains, Evans blue extravasation, read-out: EQ50 (the source's name)
Molecule,LogPc (octanol-saline partition coefficient) [1],Water mg/ml (solubility in aqueous solution) [1] [mg/mL],Octanol mg/ml (solubility in octanol) [1] [mg/mL],Ratio F-Na/EB (mean of individual ratios) [2],MEC [3],EC50 [4] [µM],BTB EB μg/g Tumor [4] [µg/g],Specificity Tumor/Non-tumor (T/NT) [4],"solubility [1, 5] [µg/mL]",logD [1],"solubility [1, 6] [µg/mL]",% EB/g brain [2] [%],Brain fluorescein uptake (% of serum F-Na level) [2],μg EB/g brain (at EC50) ([3]; Table 6),MEC (minimal effective concentration) ([3]; Table 6),"EC50 [3, 7] [µM]",EC50 ([4]; Rattus norvegicus) [µM],"permeabilization of the BBB (FIG. 1, in words) ([3]; Evans blue extravasation in rat brain, 3,n-type BFAs)",MEC (minimal effective concentration) ([3]; Table 5),"EC50 ([3]; Table 5, rat brain, intracarotid infusion, read-out: EC50 (Evans Blue extravasation)) [µM]"
"2-(4′-Hexadecanoyloxy)ethoxyethyl phosphate [3,12-DEG-PO4]",1.31,8,>5,around 9,3.0 ± 0.5,7 ± 2,34 ± 8,22 and 22 ± 5,–,–,–,–,–,–,–,–,–,–,–,–
"CCCCCCCCCCCCC(CCC)C(=O)OCCOCCOP(=O)([O-])OCC[N+](C)(C)C (centres unmarked) [3,12-DEG-PC, 2-(2′-Propyltetradecanoyloxy)ethoxyethylphosphocholine]",–,–,–,6.8 ± 0.8,15 ± 2,–,11,2,> 50000,0.73,> 10000,0.6 ± 0.1,2.9 ± 0.5 % of the F—Na level in the ser,14 ± 2 μg EB/g brain,15 ± 2 µM,70 ± 12,60,–,–,–
"CCCCCCCCCCCCC(CCC)C(=O)OCCOCCOP(=O)([O-])[O-].[Na+].[Na+] (centres unmarked) [3,12-DEG-PO4Na2, 2-[2′-(2″-Propyltetradecanoyloxy)-ethoxy]ethyl Disodium Phosphate]",–,–,–,9.0 ± 1.2,–,–,–,–,–,–,–,1.4 ± 0.2,9.0 ± 1.4 % of the F—Na level in the ser,18 μg EB/g brain and 18 ± 3 μg EB/g brain,3.3 µM and 3.3 ± 0.5 µM,20,–,–,–,–
"CCCCCCCCCCCCC(CCC)C(=O)OCCOP(=O)([O-])OCC[N+](C)(C)C (centres unmarked) [3,12-MEG-PC, 2-(2′-Propyltetradecanoyloxy)ethylphosphocholine]",–,–,–,6.9 ± 0.1,10 ± 1,–,12,2,> 10000,1.22,> 10000,0.9 ± 0.2,5.2 ± 0.8 % of the F—Na level in the ser,15 ± 2 μg EB/g brain,10 ± 1 µM,19.5 ± 1.5,20,–,–,–
"CCCCCCCCCCCCC(CCC)C(=O)[O-].[Na+] (centres unmarked) [3,12-Na, reference compound]",0.99,>10,>20,4.9 and 4.9 ± 0.9,6.5 ± 0.7,22 ± 4,44 ± 8,1.1 ± 0.3,–,–,–,1.8 ± 0.2,6.4 ± 1.1 % of the F—Na level in the ser,–,–,–,–,active,6.5 ± 0.7,20 ± 3
"CCCCCCCCCCCCC(CCC)OP(=O)([O-])OCC[N+](C)(C)C (centres unmarked) [3,12-PC, 4-Hexadecanyl phosphocholine]",–,>10,>10,7.8 ± 1.3,23 ± 4,52 ± 7,17 ± 2,1.8 ± 0.5,–,–,–,0.8 ± 0.1,3.0 ± 0.5 % of the F—Na level in the ser,10 ± 1 μg EB/g brain,23 ± 4 µM,76 ± 14,–,–,–,–

# Reference: patent US7186703B2, “Derivatives of branched-chain lipophilic molecules and uses thereof” (D-Pharm Ltd., priority 2000, dated 2007)
